What was measured:
[1] = comparison of contrast agents applied in turn to the same tooth cavity, radiographic analysis
Description: A 9M solution of sodium iodide (an ionic contrast agent) and a 76% solution of iopamidol (a non-ionic contrast agent) were administered. Each compound was applied in turn under identical conditions to the same tooth cavity and the tooth was radiographically analyzed as discussed above. After application and testing of each compound, the contrast was washed out from the tooth, and the tooth was tested radiographically to ensure there was no contrast remaining.
A barium sulfate solution comprising 1 gram of barium sulfate in 0.5 ml distilled water was administered. The compound was applied, and the tooth was analyzed and compared to other contrast agents and to the control treated tooth as discussed in Example 4. After application and testing of each compound, the contrast was washed out from the tooth and the tooth was tested radiographically to ensure there was no contrast remaining.

[2] = barium sulfate 96% w/w, radiograph 15 seconds after application
Source text: The radiograph was taken 15 seconds after barium sulfate (96% w/w) was applied.

[3] = x-ray contrast imaging of identified dental caries before and after topical intra-oral composition; details: 9 M sodium iodide in distilled water
Description: A radiographic contrast imaging analysis using x-ray imaging was performed, comparing the imaging of identified dental caries before and after administration of a topical intra-oral composition comprising sodium iodide and distilled water according to the methods of the current invention. Specifically, an x-ray image of a tooth with identified dental caries was performed, without administering the topical intra-oral composition. This image was used as a control for determining the ability of typical x-ray images to detect dental caries in a patient. Subsequently, the same tooth was administered a composition comprising sodium iodide and distilled water, with the composition having a sodium iodide concentration of 9 molar. After administration of the composition to the tooth, x-ray images were obtained 20 seconds after administration and 16 minutes after administration. Further, an x-ray image of the tooth was taken 14 days after administration of the composition to determine if the composition continued to reside in the dental carious lesion. The images obtained are found in FIG. 1.

[4] = x-ray imaging of cavitated lesion versus non-cavitated lesion; details: 9 M sodium iodide solution, x-ray 3 minutes after administration
Description: An experiment was performed to test the ability of the topical intra-oral compositions and methods to differentiate between cavitated surfaces (a cavity) requiring treatment and non-cavitated lesions not requiring treatment. Specifically, an x-ray image of a tooth with an identified cavitated surface on the right side of the tooth and a non-cavitated lesion on the other side was performed, without administering the topical intra-oral composition. This image was used as a control for determining the ability of the topical intra-oral compositions to selectively absorb into cavitated lesions, rather than non-cavitated lesions. Subsequently, the same tooth was administered a composition comprising sodium iodide and distilled water, with the composition having a sodium iodide concentration of 9 molar. After administration of the composition to the tooth, an x-ray image was obtained 3 minutes after administration. The results are illustrated in FIG. 3.

[5] = x-ray imaging of cavitated surface versus sound healthy surface; details: 9 M sodium iodide solution, x-ray 2 minutes after administration
Description: An experiment was performed to test the ability of the topical intra-oral compositions and methods to differentiate between cavitated surfaces (dental caries) and healthy, sound surfaces. Specifically, an x-ray image of a tooth with an identified cavitated surface on one side of the tooth and a sound surface on the other side was performed, without administering the topical intra-oral composition. This image was used as a control for determining the ability of the topical intra-oral compositions to selectively absorb into cavitated surfaces, rather than sound surfaces. Subsequently, the same tooth was administered a composition comprising sodium iodide and distilled water, with the composition having a sodium iodide concentration of 9 molar. After administration of the composition to the tooth, an x-ray image was obtained 2 minutes after administration. The results are illustrated in FIG. 2.

O=S(=O)([O-])[O-].[Ba+2] [barium sulfate]
radiographic contrast enhancement of tooth cavity ([1]; 1 gram of barium sulfate in 0.5 ml distilled water): produced radiographic contrast enhancement revealing tooth cavitation | radiographic image of shallow cavity [2]: image showing a shallow cavity

[I-].[Na+] [sodium iodide]
radiographic image of dental caries versus control image ([3]; x-ray 20 seconds after administration): enhanced radiographic image of dental caries | radiographic image of dental caries versus control image ([3]; x-ray 16 minutes after administration): enhanced radiographic image of dental caries | x-ray appearance of composition in the carious lesion ([3]; x-ray 14 days after administration): altered x-ray appearance | radiographic image of cavitated lesion (cavity) ([4]; cavitated lesion): enhanced radiographic image of a cavitated lesion | effect on imaging of non-cavitated lesions ([4]; non-cavitated lesion): does not affect the imaging of non-cavitated lesions | radiographic contrast enhancement of tooth cavity ([1]; 9M solution of sodium iodide): produced radiographic contrast enhancement revealing tooth cavitation | radiographic image of dental caries (cavitated surface) ([5]; cavitated surface): enhanced radiographic image of dental caries | effect on imaging of sound tooth surfaces ([5]; sound surface): does not affect the imaging of sound tooth surfaces

C[C@H](O)C(=O)Nc1c(I)c(C(=O)NC(CO)CO)c(I)c(C(=O)NC(CO)CO)c1I [iopamidol]
radiographic contrast enhancement of tooth cavity ([1]; 76% solution of iopamidol): produced radiographic contrast enhancement revealing tooth cavitation

— US20140050669A1, “USE OF RADIOGRAPHIC CONTRAST AGENTS FOR DETECTING DENTAL CARIES” (Creighton University, priority 2011, published 2014)
